According to patent US9296741B2, “Bromodomain inhibitors” (priority 2012, dated 2016):

How the values were obtained:
[1] = tested on: breast cancer cell line MX-1; assay: MX-1 cell line proliferation assay; type: cell-based, human; details: Homo sapiens, MX1, 72 h; MX-1 cells, 3-day proliferation, Cell Titer Glo; read-out: Cellular proliferation: EC50
[2] = Human liver microsome stability assay; type: in vitro ADME; details: both sexes, human, microsomes, pH 7.4
[3] = Rat liver microsome stability assay; type: in vitro ADME; details: rat liver microsomes (male Sprague-Dawley), 0.5 μM test compound, 0.25 mg/mL microsomal protein, pH 7.4, 37° C.; read-out: Stability in rat liver microsomes (t1/2 in minutes)
[4] = Mouse liver microsome stability assay; type: in vitro ADME; details: male, CD1, mouse, microsomes, pH 7.4
[5] = tested on: LPS induced IL-6 production; assay: LPS (lipopolysaccharide) induced IL-6 production mouse assay; type: in vivo; details: Mus musculus, read-out: Inhibition of LPS induced IL-6 production in Mice, % inhibition at 3 mg/kg; 3 mg/kg oral, 1 h before LPS; serum IL-6 2 h after LPS
[6] = biological target: human BRD4 first bromodomain (BDI_K57-E168) (Homo sapiens (Human), UniProt O60885); assay: TR-FRET bromodomain binding assay, BRD4 first bromodomain
[7] = biological target: human BRD4 second bromodomain (BDII_E352-M457) (Homo sapiens (Human), UniProt O60885); assay: TR-FRET bromodomain binding assay, BRD4 second bromodomain

EC50 [1] | half-life at 0.5 μM [2] | half-life at 0.5 μM [3] | half-life at 0.5 μM [4] | Ki [6] | Ki [7] | Compound | inhibition in vivo at 3 mg/kg [5]
12.6 nM | 29 min | 5 min | 55 min | – | – | Cn1cc(-c2cc(NS(C)(=O)=O)cc(F)c2Oc2ccccc2)c2cc[nH]c2c1=O [Example 24, N-[3-fluoro-5-(6-methyl-7-oxo-6,7-dihydro-1H-pyrrolo[2,3-c]pyridin-4-yl)-4-phenoxyphenyl]methanesulfonamide] | 58%
17.1 nM | – | – | – | 2.1 nM | 3.3 nM | Cn1cc(-c2cc(NS(C)(=O)=O)ccc2Oc2ccc(F)cc2)c2cc[nH]c2c1=O [Example 26, N-[4-(4-fluorophenoxy)-3-(6-methyl-7-oxo-6,7-dihydro-1H-pyrrolo[2,3-c]pyridin-4-yl)phenyl]methanesulfonamide] | 60%
23.9 nM | 21 min | 9 min | – | – | – | Cn1cc(-c2cc(NS(C)(=O)=O)cc(Cl)c2Oc2ccccc2)c2cc[nH]c2c1=O [Example 28, N-[3-chloro-5-(6-methyl-7-oxo-6,7-dihydro-1H-pyrrolo[2,3-c]pyridin-4-yl)-4-phenoxyphenyl]methanesulfonamide] | 52%
182 nM | > 120 min | > 120 min | 43 min | – | – | Cn1cc(-c2cc(S(N)(=O)=O)cnc2OC2CCOC2)c2cc[nH]c2c1=O (stereo not drawn) [Example 86, 5-(6-methyl-7-oxo-6,7-dihydro-1H-pyrrolo[2,3-c]pyridin-4-yl)-6-(tetrahydrofuran-3-yloxy)pyridine-3-sulfonamide] | 55%
53.4 nM | > 120 min | 23 min | – | – | – | CNS(=O)(=O)c1cnc(OC2CCOC2)c(-c2cn(C)c(=O)c3[nH]ccc23)c1 (stereo not drawn) [Example 87, N-methyl-5-(6-methyl-7-oxo-6,7-dihydro-1H-pyrrolo[2,3-c]pyridin-4-yl)-6-(tetrahydrofuran-3-yloxy)pyridine-3-sulfonamide] | 57%
29.7 nM | – | – | – | 11.5 nM | 3 nM | Cn1cc(-c2cc(S(C)(=O)=O)ccc2Oc2ccccc2F)c2cc[nH]c2c1=O [Example 149, 4-[2-(2-fluorophenoxy)-5-(methylsulfonyl)phenyl]-6-methyl-1,6-dihydro-7H-pyrrolo[2,3-c]pyridin-7-one] | 69%
66.5 nM | – | – | – | 9.7 nM | 4.2 nM | Cn1cc(-c2cc(S(C)(=O)=O)ccc2Oc2cccc(F)c2)c2cc[nH]c2c1=O [Example 150, 4-[2-(3-fluorophenoxy)-5-(methylsulfonyl)phenyl]-6-methyl-1,6-dihydro-7H-pyrrolo[2,3-c]pyridin-7-one] | 54%
54.9 nM | – | – | – | 10.7 nM | 8.1 nM | Cn1cc(-c2cc(S(C)(=O)=O)ccc2Oc2ccc(F)cc2)c2cc[nH]c2c1=O [Example 151, 4-[2-(4-fluorophenoxy)-5-(methylsulfonyl)phenyl]-6-methyl-1,6-dihydro-7H-pyrrolo[2,3-c]pyridin-7-one] | 66%
119 nM | 67 min | 119 min | 21 min | – | – | CCS(=O)(=O)Nc1ccc(Oc2ccc(F)cc2F)c(-c2nn(C)c(=O)c3[nH]ccc23)c1 [Example 160, N-[4-(2,4-difluorophenoxy)-3-(6-methyl-7-oxo-6,7-dihydro-1H-pyrrolo[2,3-d]pyridazin-4-yl)phenyl]ethanesulfonamide] | 51%
43 nM | – | – | – | 6.5 nM | 12.2 nM | Cn1cc(-c2cc(S(C)(=O)=O)ccc2NC2CCOC2)c2cc[nH]c2c1=O (stereo not drawn) [Example 167, 6-methyl-4-[5-(methylsulfonyl)-2-(tetrahydrofuran-3-ylamino)phenyl]-1,6-dihydro-7H-pyrrolo[2,3-c]pyridin-7-one] | 64%
22.8 nM | – | > 120 min | – | 1.7 nM | 1.4 nM | CCS(=O)(=O)c1ccc(O[C@H]2CC[C@@H](O)CC2)c(-c2cn(C)c(=O)c3[nH]ccc23)c1 [Example 202, 4-{5-(ethylsulfonyl)-2-[(cis-4-hydroxycyclohexyl)oxy]phenyl}-6-methyl-1,6-dihydro-7H-pyrrolo[2,3-c]pyridin-7-one] | 68%
4.7 nM | – | > 120 min | – | 0.69 nM | 0.75 nM | CCS(=O)(=O)c1ccc(O[C@H]2CC[C@H](O)CC2)c(-c2cn(C)c(=O)c3[nH]ccc23)c1 [Example 203, 4-{5-(ethylsulfonyl)-2-[(trans-4-hydroxycyclohexyl)oxy]phenyl}-6-methyl-1,6-dihydro-7H-pyrrolo[2,3-c]pyridine-7-one] | 78%
82.9 nM | > 120 min | 81 min | 68 min | – | – | CCS(=O)(=O)c1ccc(OCC2CC2)c(-c2nn(C)c(=O)c3[nH]ccc23)c1 [Example 204, 4-[2-(cyclopropylmethoxy)-5-(ethylsulfonyl)phenyl]-6-methyl-1,6-dihydro-7H-pyrrolo[2,3-d]pyridazin-7-one] | 35%
36.7 nM | 104 min | > 120 min | > 120 min | – | – | CNS(=O)(=O)c1cnc(NCC2CC2)c(-c2cn(C)c(=O)c3[nH]ccc23)c1 [Example 210, 6-[(cyclopropylmethyl)amino]-N-methyl-5-(6-methyl-7-oxo-6,7-dihydro-1H-pyrrolo[2,3-c]pyridin-4-yl)pyridine-3-sulfonamide] | 78%
97.5 nM | 52 min | 53 min | 56 min | – | – | CNS(=O)(=O)c1cnc(Oc2ccc(F)cc2F)c(-c2cn(C)c(=O)c3[nH]ccc23)c1 [Example 246, 6-(2,4-difluorophenoxy)-N-methyl-5-(6-methyl-7-oxo-6,7-dihydro-1H-pyrrolo[2,3-c]pyridin-4-yl)pyridine-3-sulfonamide] | 71%
14.4 nM | > 120 min | > 120 min | > 120 min | – | – | Cn1cc(-c2cc(S(N)(=O)=O)ccc2OCC2CC2)c2cc[nH]c2c1=O [Example 249, 4-(cyclopropylmethoxy)-3-(6-methyl-7-oxo-6,7-dihydro-1H-pyrrolo[2,3-c]pyridin-4-yl)benzenesulfonamide] | 59%
19.5 nM | > 120 min | 116 min | 29 min | – | – | Cn1cc(-c2cc(CS(C)(=O)=O)ccc2Oc2ccc(F)cc2F)c2cc[nH]c2c1=O [Example 287, 4-{2-(2,4-difluorophenoxy)-5-[(methylsulfonyl)methyl]phenyl}-6-methyl-1,6-dihydro-7H-pyrrolo[2,3-c]pyridin-7-one] | 73%
1000 nM | > 120 min | 2 min | 25 min | 157 nM | 422 nM | Cn1cc(-c2cc(-c3ccc(F)nc3)ccc2OCC2CC2)c2cc[nH]c2c1=O [Example 348, 4-[2-(cyclopropylmethoxy)-5-(6-fluoropyridin-3-yl)phenyl]-6-methyl-1,6-dihydro-7H-pyrrolo[2,3-c]pyridin-7-one] | –
32.1 nM | > 120 min | 39 min | 36 min | 6.6 nM | 3.1 nM | CCS(=O)(=O)Nc1ccc(Oc2ccc(F)cc2F)c(-c2cn(C)c(=O)c3[nH]cc(C=O)c23)c1 [Example 349, N-[4-(2,4-difluorophenoxy)-3-(3-formyl-6-methyl-7-oxo-6,7-dihydro-1H-pyrrolo[2,3-c]pyridin-4-yl)phenyl]ethanesulfonamide] | –
1100 nM | 76 min | 66 min | 30 min | 223 nM | 153 nM | CCS(=O)(=O)Nc1ccc(Oc2ccc(F)cc2F)c(-c2cn(C)c(=O)c3[nH]cc(CN4CCN(C)CC4)c23)c1 [Example 351, N-[4-(2,4-difluorophenoxy)-3-{6-methyl-3-[(4-methylpiperazin-1-yl)methyl]-7-oxo-6,7-dihydro-1H-pyrrolo[2,3-c]pyridin-4-yl}phenyl]ethanesulfonamide] | –
786 nM | 40 min | 8 min | 10 min | 158 nM | 256 nM | Cn1cc(-c2cc(-c3cccc(C#N)c3)ccc2OCC2CC2)c2cc[nH]c2c1=O [Example 353, 4′-(cyclopropylmethoxy)-3′-(6-methyl-7-oxo-6,7-dihydro-1H-pyrrolo[2,3-c]pyridin-4-yl)biphenyl-3-carbonitrile] | –
95.4 nM | 23 min | 41 min | 24 min | 66 nM | 12.9 nM | Cn1cc(-c2cc(S(=O)(=O)N3CCC(O)CC3)ccc2OCC2CC2)c2cc[nH]c2c1=O [Example 354, 4-{2-(cyclopropylmethoxy)-5-[(4-hydroxypiperidin-1-yl)sulfonyl]phenyl}-6-methyl-1,6-dihydro-7H-pyrrolo[2,3-c]pyridin-7-one] | –
